Values of other authors in patent publication US20230192588A1, “CANNABIDIOLIC ACID (CBDA) DERIVATIVES AND USES THEREOF” (YISSUM RESEARCH DEVELOPMENT COMPANY OF THE HEBREW …, priority 2020, published 2023).

Key:
rats [1] = details: compared to CBDA, 5-HT1A receptor-dependent manner
rats [2] = details: compared to CBDA, 5-HT1A receptor-dependent manner; remark: listed apart in the source
rat models = details: oral ingestion of a low dose (1 mg/kg); two rat models

Q: Which results are given for `C=C(C)[C@@H]1CCC(C)=C[C@H]1c1c(O)cc(CCCCC)c(C(=O)OC)c1O` [HU-580, cannabidiolic acid methyl ester]?
A: potency in suppressing signs of both acute and anticipatory nausea (rats [1]): greater potency than CBDA; potency in suppressing signs of stress-induced anxiety (rats [2]): greater potency than CBDA; anti-depressant effect (rat models): potent anti-depressant effect
